# Measurements as given in article PMC12122562, “Phase 1 studies of the indenoisoquinolines LMP776 and LMP744 in patients with solid tumors and lymphomas” (Cancer Chemotherapy and Pharmacology, 2025).
# Biological target: T1, TOP1 (Homo sapiens, UniProt P11387)
# T1 construct: paired pre-treatment and on-treatment tumor biopsies (C1D2, 2–4 h after dosing) from 6 patients receiving LMP744 at the MTD; from tissue; host or cells: core needle tumor biopsies from patients (LMP744 expansion cohort)
# T1 sequence (P11387 1-765): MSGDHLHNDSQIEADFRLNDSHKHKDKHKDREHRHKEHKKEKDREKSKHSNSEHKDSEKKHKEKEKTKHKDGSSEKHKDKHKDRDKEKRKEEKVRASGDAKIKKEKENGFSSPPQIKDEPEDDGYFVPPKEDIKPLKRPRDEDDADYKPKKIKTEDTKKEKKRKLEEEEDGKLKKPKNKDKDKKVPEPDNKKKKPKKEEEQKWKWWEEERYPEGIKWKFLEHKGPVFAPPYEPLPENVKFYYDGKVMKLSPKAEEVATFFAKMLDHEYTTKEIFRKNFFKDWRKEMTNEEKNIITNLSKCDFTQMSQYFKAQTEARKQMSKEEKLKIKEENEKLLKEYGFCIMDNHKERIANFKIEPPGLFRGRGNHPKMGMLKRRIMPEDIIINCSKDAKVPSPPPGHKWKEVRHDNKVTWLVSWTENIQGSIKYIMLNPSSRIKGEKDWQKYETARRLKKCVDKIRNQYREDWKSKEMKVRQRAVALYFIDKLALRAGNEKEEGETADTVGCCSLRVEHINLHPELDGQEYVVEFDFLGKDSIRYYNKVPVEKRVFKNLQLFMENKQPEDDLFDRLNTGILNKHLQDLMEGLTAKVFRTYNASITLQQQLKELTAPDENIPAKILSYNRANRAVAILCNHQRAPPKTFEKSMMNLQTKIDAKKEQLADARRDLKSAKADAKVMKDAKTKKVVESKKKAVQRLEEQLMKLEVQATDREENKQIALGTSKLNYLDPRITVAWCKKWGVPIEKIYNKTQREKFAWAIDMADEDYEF
# Test: qIF of paired tumor biopsies: nuclear TOP1
# Format: in vivo
# Text: The LMP744 protocol collected pre-treatment (baseline) and on-treatment paired biopsies from patients in the expansion cohort. Core needle tumor biopsies (18-gauge) were collected and flash-frozen at point of collection per NCI SOPs (https://dctd.cancer.gov/ResearchResources/biomarkers/docs/par/SOP340507_Biopsy_Frozen.pdf) as described to preserve labile post-translational modifications such as phosphorylation. Biopsy pairs were thawed in formalin, fixed in paraffin embedded together with control tissues following NCI SOP340550 (https://dctd.cancer.gov/ResearchResources/biomarkers/DDR3/SOP340550_Biopsy_Section_Testis_Jejunum_Controls.pdf). TOP1 and TOP1cc were measured with a cocktail containing custom-conjugated rabbit monoclonal antibody anti-TOP1-DIG (Abcam, EPR5376 (2)) and mouse monoclonal antibody anti-TOP1cc (clone 1.1A [34, 35], EMD Millipore) that were detected with reporter secondary antibodies AlexaFluor-647 IgG fraction monoclonal mouse anti-digoxin (Jackson ImmunoResearch) and goat/anti-mouse AlexaFluor-488, respectively. Phosphorylated KAP1 (pKAP1, phosphorylated at S824) was measured using custom-conjugated pKAP1-pS824-DNP (Abcam, EPR5248) and detected with AlexaFluor-488 conjugated with anti-dinitrophenyl-KLH rabbit IgG Antibody Fraction (DNP-488, ThermoFisher). Validated immunofluorescence assays (IFAs) were used to measure levels of γH2AX, phosphorylated NBS1 (pNBS1, phosphorylated at Ser343), and RAD51 [15, 17, 19, 29]. Antibodies in all clinical immunofluorescence staining protocols were used as a cocktail with β-catenin as a tumor marker as previously described. After staining with primary antibodies, washing, and staining with secondary antibodies, slides were rinsed in 1X PBS and blotted to remove excess liquid. Slides were cured overnight with Prolong Gold Antifade Reagent (Invitrogen) in the dark and imaged the following day. Confocal images (12-bit) were acquired at 20X using a Nikon A1 scan head on a Nikon 90i microscope at 0.24 µm/pixel to measure nuclear TOP1 and nuclear foci of TOP1cc and RAD51. […] TOP1, γH2AX, pNBS1, and pKAP1 were measured as the percentage of DAPI-stained tumor cell nuclear area that was positive for the biomarker (% NAP); RAD51 [19] and TOP1cc was measured as a function of the percentage of nuclei with ≥ 5 foci (RAD51) or ≥ 19 foci (TOP1cc). Apoptosis was measured using a validated IFA of tumor cells positive for both cCasp3 blebbing in the cytoplasm and γH2AX in the nucleus. Anti-SLFN11 rabbit monoclonal antibody (Cell Signaling Technology, clone D8W1B) was detected by immunohistochemistry (IHC) using Bond Polymer Detection kit (Leica) and scanned in 20X widefield Aperio (Leica), and the distribution of staining intensity of tumor cell nuclei graded as 0, 1 + , 2 + or 3 + was converted into an H-score. […]
compound,measurement,setting,value
COc1cc2c3c(n(CCCNCCO)c(=O)c2cc1OC)-c1cc2c(cc1C3=O)OCO2 [LMP744],"Nuclear TOP1, change in the biopsy cohort","6 patients at MTD, P = 0.1448",no significant changes
same,Nuclear TOP1,"patient 29, MTD, C1D2",neither biomarker changed with treatment
same,Nuclear TOP1,"patient 31, MTD, C1D2",decreased nearly to background levels
same,Decrease of nuclear TOP1,"patient 33, MTD, C1D2",57%
